Experimental findings from paper PMC7447640, “Synthesis, antioxidant properties and neuroprotection of α-phenyl-tert-butylnitrone derived HomoBisNitrones in in vitro and in vivo ischemia models” (Scientific Reports, 2020) are described below.

In this test the target is T1, soybean lipoxygenase (LOX) (Glycine max, UniProt P08170).
T1 construct: gene LOX1.1
T1 sequence (P08170 1-839): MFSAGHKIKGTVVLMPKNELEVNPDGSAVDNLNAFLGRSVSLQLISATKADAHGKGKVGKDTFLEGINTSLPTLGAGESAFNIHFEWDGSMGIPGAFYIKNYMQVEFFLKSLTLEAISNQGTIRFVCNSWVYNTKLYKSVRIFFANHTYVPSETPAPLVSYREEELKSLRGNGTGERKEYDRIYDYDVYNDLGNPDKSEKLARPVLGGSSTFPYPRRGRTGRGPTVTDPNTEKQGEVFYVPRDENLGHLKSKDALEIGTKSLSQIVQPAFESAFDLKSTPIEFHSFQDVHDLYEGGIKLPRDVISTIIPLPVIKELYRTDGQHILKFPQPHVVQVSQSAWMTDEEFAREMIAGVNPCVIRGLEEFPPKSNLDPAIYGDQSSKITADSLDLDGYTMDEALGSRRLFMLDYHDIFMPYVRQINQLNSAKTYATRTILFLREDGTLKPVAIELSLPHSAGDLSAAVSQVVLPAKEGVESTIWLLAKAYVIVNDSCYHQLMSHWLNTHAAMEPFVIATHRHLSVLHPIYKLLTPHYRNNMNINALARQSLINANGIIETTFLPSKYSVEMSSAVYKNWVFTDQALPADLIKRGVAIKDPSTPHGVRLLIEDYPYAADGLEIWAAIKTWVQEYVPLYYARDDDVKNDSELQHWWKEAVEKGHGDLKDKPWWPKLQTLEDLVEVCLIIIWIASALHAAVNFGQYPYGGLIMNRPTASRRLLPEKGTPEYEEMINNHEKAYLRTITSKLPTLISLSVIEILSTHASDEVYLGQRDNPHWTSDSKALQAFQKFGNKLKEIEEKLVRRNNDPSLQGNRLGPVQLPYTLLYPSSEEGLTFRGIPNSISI
The experiment in a line: soybean lipoxygenase, linoleate oxidation at […] nm. It is filed as biochemical. Conditions: read-out: LOX inhibition (IC50 [μM]/%).
Consider `CC(C)(C)/[N+]([O-])=C/c1ccccc1/C=[N+](\[O-])C(C)(C)C` [HBN8, (1Z,1′Z)-1,1′-(1,2-Phenylene)bis(N-tert-butylmethanimineoxide)], for which the IC50 worked out at 57.5 µM. In the case of `C/[N+]([O-])=C/c1ccccc1/C=[N+](/C)[O-]` [HBN7, (1Z,1′Z)-1,1′-(1,2-Phenylene)bis(N-methylmethanimineoxide)] it was 60 µM.

In the case of `[O-]/[N+](=C\c1ccccc1/C=[N+](\[O-])Cc1ccccc1)Cc1ccccc1` [HBN9, (1Z,1′Z)-1,1′-(1,2-Phenylene)bis(N-benzylmethanimineoxide)], the IC50 is 85 µM.
